Source: patent US6960430B2, “Screening methods for compounds useful in the regulation of cell proliferation” (priority 1999, dated 2005)
Entries after “also recorded” stand apart in the source; their conditions may differ.

Columns and labels:
[1] = tested on: tetracycline-regulated transactivator protein tTA; test: Hsp72 expression from adenovirus vector controlled by tetracycline-regulated transactivator in Rat-1 cells, immunoblot; format: cell-based; settings: 20 nM
From the text: Recombinant adenovirus vector expressing Hsp72 (ADTR5Hsp72-GFP, curtesy of Dr. Mosser, Biotechnology Research Institute, Montreal) was constructed by cloning a dicistronic transcription unit encoding Hsp72 and Aequorea Victoria green fluorescent protein gene, separated by the encephalomyocarditis virus internal ribosome entry site from pTR-DC/Hsp70-GFP (Mosser et al., 1997a, Mol. Cell Biol, 17: 5317-5327; Mosser et al., 1997b, Biotechniques 22: 150-161) into an adenovirus transfer vector. Expression of this transcription unit is controlled by the tetracycline-regulated transactivator protein tTA (Mosser et al., 1997b, Biotechniques 22: 150-161) which we expressed from a separate recombinant adenovirus. Recombinant adenoviruses were generated by standard techniques as detailed by (Jani et al., 1997, J. Virol. Methods 64: 111-124). Viruses were used at stock concentration of 10^10 pfu/ml. […] Two-ml cell cultures grown in liquid medium in 35 mm dishes were infected in the presence or the absence of anhydrotetracycline with 3·10^7 pfu of each virus, sufficient for infection of almost 100% cells, and additional 10^7 pfu of each virus was added on days three and seven. After 24 hours incubation with viruses, cells were washed with PBS and placed in fresh media with or without anhydrotetracycline. […]

JNK phosphatase(s) [2] = test: JNK inactivation (dephosphorylation) after heat shock in Hsp72-expressing MVH cells, immunoblot with antibody to phospho-JNK; format: cell-based, rat; settings: for JNK inactivation / JNK dephosphorylation in heat-shocked MVH cells: 0.5 mM added 1 hr after heat shock (45° C., 50 min), recovery at 37° C., JNK1 by phospho-JNK antibody; for JNK activity, drug alone: unstressed cells, vanadate alone
From the text: Another assay for JNK activity allowed us to measure separately activity of two major isoforms (46 kDa JNK1 and 54 kDa JNK2) using JNK antibody specific to activated (phosphorylated) form of JNK (Promega, Wis.). For immunoblot analysis samples were subjected to Western immunoblotting. Secondary antibodies conjugated with peroxidase were visualized with ECL substrates (Amersham, Arlington Heights, Ill.) and resulting films were quantified by densitometry. Measurement of JNK phosphatase activity. In vivo INK phosphatase activity was measured as described earlier (Meriin, A. B., et al., 1999, Mol. Cell Biol. (In press)). […] […] The rate of JNK dephosphorylation was assessed under these conditions by immunoblotting with antibody which recognizes the activated (phosphorylated) form of JNK specifically.

MVH cells = test: Apoptosis by Hoechst-33342 staining in MVH cells (Rat-1 variant constitutively expressing Hsp72); format: cell-based; settings: heat shock 45° C., 50 min, 0.5 mM, apoptosis assessed 7 hr after treatment
Procedure: The level of apoptosis was measured by fluorescent microscopy using Hoechst-33342 DNA-specific dye (10 μM). Shrinked cells with condensed or fragmented nuclei were counted as apoptotic. Cells were washed twice with PBS on a dish, aspirated and lysed by thoroughly scraping with a plastic scraper in 200 μL lysis buffer per a 35 mm dish (40 mM HEPES, pH 7.5; 50 mM KCl; […]; 2 mM DTT, 1 mM Na3VO4; 50 mM β-glycerophosphate; 50 mM NaF; 5 mM EDTA; 5 mM EGTA; 1 mM PMSF; 1 mM benzamedine; 5 μg/ml of each: leupeptine, pepstatine A, aprotenin). The lysates were clarified by centrifugation in a microcentrifuge at 15,000 rpm for 5 min. Total protein concentration was measured in the supernatants after which they were diluted with the lysis buffer to achieve equivalent concentration in all samples. All procedures were performed at 4° C.

JNK phosphatase(s) [3] = settings: various cell lines; cited from earlier work

Row | SMILES | Hsp72 expression after infection with both adenoviruses [1] | JNK inactivation / JNK dephosphorylation in heat-shocked MVH cells (JNK phosphatase(s) [2]) | JNK inactivation / JNK dephosphorylation in heat-shocked MVH cells (JNK phosphatase(s) [2]; listed as Ortho-vanadate) | JNK activity, drug alone (JNK phosphatase(s) [2]; listed as Ortho-vanadate) | JNK activity, drug alone (JNK phosphatase(s) [2]; listed as vanadate) | heat-induced apoptosis of MVH cells (thermoresistance, anti-apoptotic effect of Hsp72) (MVH cells; listed as Ortho-vanadate) | heat-induced apoptosis of MVH cells (thermoresistance, anti-apoptotic effect of Hsp72) (MVH cells; listed as vanadate) | suppression of JNK phosphatase(s) (JNK phosphatase(s) [3])
1 | Cc1c2c(c(O)c3c(O)cccc13)C(=O)[C@]1(O)C(=O)C(C(N)=O)=C(O)[C@@H](N(C)C)[C@@H]1C2 [anhydrotetracycline] | expression of Hsp72 in the absence of tetracycline but not in the presence of 20 nM of anhydrotetracycline |  |  |  |  |  |  | 
2 | [O]=[V]([O-])([O-])[O-] [ortho-vanadate] |  | strongly inhibited JNK inactivation | inhibits JNK dephosphorylation | no significant effect on JNK activity | affected neither JNK activity | abolishes thermoresistance | completely reversed anti-apoptotic effect of Hsp72; also recorded: dramatically increased | effectively suppresses JNK phosphatase(s)
